Reference: patent publication US12359188B2, “Method for producing therapeutic exosomes from nanoelectroporation and other non-endocytic cell transfection” (Ohio State Innovation Foundation, priority 2017, dated 2025)

Tested on: NEP transfected MEF cells
Assay: Effect of HSP70/HSP90 inhibitors on EV secretion from NEP transfected MEF cells (DLS goniometry)
Format: cell-based, mouse
Details: medium collected 24 h post-transfection
Experimental: After NEP transfection, the cell culture was replaced with fresh medium containing HSP70 inhibitor (VER 155008, 50 μM), HSP90 inhibitor (NVP-HSP990, 1 μM), or their mixture. Medium was collected at 24 h post-transfection, and EV numbers were detected by dynamic light scattering (DLS) goniometry;
During electroporation, Joule heating caused by the imposed electric field could tentatively increase the cell temperature to cause thermal shocking to the transfected cells. It is known that thermal shocking may increase cell secretion of EVs due to chaperone mediated autophage caused by the increase of heat shock proteins in cells (8-10). […] When HSP inhibitors were added in cell culture medium after electroporation, EV secretion could be suppressed. […] Here, the cell culture was replaced with fresh medium containing HSP70 inhibitor (VER 155008), HSP90 inhibitor (NVP-HSP990), or their mixture right after NEP transfection. Medium was collected at 24 h post-transfection and EV numbers were detected by dynamic light scattering (DLS) goniometry.

Row | Compound | decrease of EV secretion (HSP70 inhibitor 50 μM in fresh medium right after NEP transfection) | decrease of EV secretion (HSP90 inhibitor 1 μM in fresh medium right after NEP transfection)
1 | N#Cc1ccc(COC[C@H]2O[C@@H](n3c(NCc4ccc(Cl)c(Cl)c4)nc4c(N)ncnc43)[C@H](O)[C@@H]2O)cc1 [VER 155008] | 50% | 
2 | COc1cccc(-c2cc(F)ccc2[C@H]2Cc3nc(N)nc(C)c3C(=O)N2)n1 [NVP-HSP990] |  | 40%
